Laboratory results taken from EPA's ToxValDB 9.5 (doi:10.2903/j.efsa.2018.5405).
≈ marks a conversion by molar mass, not a printed value.

What was measured:
Oncorhynchus mykiss = conditions: for LC50: acute, duration: 96 hours, mortality
Tagia sp. = conditions: chronic/long-term; reproduction
Typhlodromus pyri = experiment: LR50; higher = less toxic; conditions: acute; mortality
Hypoaspis aculeifer = conditions: chronic/long-term; reproduction
Anas platyrhynchos = conditions: reproductive
Bibionidae = conditions: chronic/long-term; duration: 28 days; development
Colinus virginianus = conditions: acute; oral; mortality
Apis mellifera = conditions: acute, mortality
Neomysis kadiakensis = conditions: chronic/long-term; duration: 28 days; development

Structure (SMILES) | LC50 (Oncorhynchus mykiss) | NOEC (Tagia sp.) | LR50 (Typhlodromus pyri) | LD50 (Rattus norvegicus; acute, oral, mortality) | NOAEL (Rattus norvegicus; chronic) | NOAEL (Rattus norvegicus; subchronic, duration: 13 weeks, inhalation, behavior) | NOEC (Oncorhynchus mykiss; chronic/long-term, duration: 58 days, growth) | NOEC (Hypoaspis aculeifer) | NOAEL (Anas platyrhynchos) | NOEC (Bibionidae) | LD50 (Colinus virginianus) | LD50 (Apis mellifera; dermal) | LD50 (Apis mellifera; oral, unspecified) | NOEC (Neomysis kadiakensis)
O=C(O)c1ccc(F)c(Oc2ccccc2)c1 [4-Fluoro-3-phenoxybenzoic acid] | 4.06 µg/mL (≈ 17.5 µM) | 2.6 mg/kg |  |  |  |  |  |  |  |  |  |  |  | 
CC1(C)C(C=C(Cl)Cl)[C@@H]1C(=O)O[C@@H](C#N)c1ccc(F)c(Oc2ccccc2)c1 (stereo partly drawn) [beta-Cyfluthrin] | 6.8e-05 µg/mL (≈ 0.000157 µM) |  | 0.0025 g/ha | > 8.79 mg/kg-day | 1.39 mg/kg-day | 0.02 mg/kg-day | 0.0042 µg/L | 0.485 mg/kg | 2.6 mg/kg-day | 0.0057 µg/L | > 58.6 mg/kg-day | 0.012 µg/piece | 0.05 µg/piece | 0.00041 µg/L
